Source: patent US20240316047A1, “INHIBITORS OF RNA HELICASE DHX9 AND USES THEREOF” (ACCENT THERAPEUTICS, INC., priority 2022, published 2024)

Target: Human recombinant DHX9 protein (Homo sapiens (Human), UniProt Q08211)
Assay: DHX9 ATPase assay (ADP-Glo)
Type: biochemical
Conditions: for IC50: read-out: DHX9 Biochemical Inflection Point

Sequence of Human recombinant DHX9 protein (Q08211 whole entry): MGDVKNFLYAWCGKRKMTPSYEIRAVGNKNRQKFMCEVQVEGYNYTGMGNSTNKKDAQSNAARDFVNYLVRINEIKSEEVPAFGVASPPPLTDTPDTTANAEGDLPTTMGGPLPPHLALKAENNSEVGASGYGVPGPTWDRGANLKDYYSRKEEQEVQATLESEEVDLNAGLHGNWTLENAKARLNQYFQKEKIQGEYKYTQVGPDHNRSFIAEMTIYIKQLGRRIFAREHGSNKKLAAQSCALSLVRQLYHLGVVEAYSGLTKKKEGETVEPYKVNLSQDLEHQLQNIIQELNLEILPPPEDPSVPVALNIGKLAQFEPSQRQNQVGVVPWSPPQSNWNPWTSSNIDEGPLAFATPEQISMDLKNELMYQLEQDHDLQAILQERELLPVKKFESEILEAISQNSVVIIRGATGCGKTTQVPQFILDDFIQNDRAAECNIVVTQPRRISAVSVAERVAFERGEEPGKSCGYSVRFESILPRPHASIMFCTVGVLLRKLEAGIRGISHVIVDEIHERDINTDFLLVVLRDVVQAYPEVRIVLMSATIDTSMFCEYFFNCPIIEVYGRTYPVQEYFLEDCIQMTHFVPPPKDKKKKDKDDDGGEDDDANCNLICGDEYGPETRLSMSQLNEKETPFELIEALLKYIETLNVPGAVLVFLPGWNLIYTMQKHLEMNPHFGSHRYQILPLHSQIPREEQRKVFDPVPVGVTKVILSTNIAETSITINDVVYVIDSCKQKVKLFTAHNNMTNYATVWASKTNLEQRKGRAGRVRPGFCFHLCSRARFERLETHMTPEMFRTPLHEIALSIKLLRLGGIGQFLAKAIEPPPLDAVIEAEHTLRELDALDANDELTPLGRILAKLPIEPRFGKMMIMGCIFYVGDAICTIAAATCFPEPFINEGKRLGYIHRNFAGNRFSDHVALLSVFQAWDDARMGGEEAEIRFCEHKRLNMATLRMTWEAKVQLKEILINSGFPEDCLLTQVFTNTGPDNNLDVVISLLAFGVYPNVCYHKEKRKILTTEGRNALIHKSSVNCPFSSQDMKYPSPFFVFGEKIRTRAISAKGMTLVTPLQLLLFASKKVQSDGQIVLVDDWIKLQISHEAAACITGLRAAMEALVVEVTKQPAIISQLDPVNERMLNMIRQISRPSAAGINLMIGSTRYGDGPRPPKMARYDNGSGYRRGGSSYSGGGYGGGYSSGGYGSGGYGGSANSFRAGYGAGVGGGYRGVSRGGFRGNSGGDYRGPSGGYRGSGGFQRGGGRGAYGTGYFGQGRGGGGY

SMILES | DHX9 Biochemical Max Inhibition | IC50 [nM]
Cc1sc(C(=O)Nc2cc(Cl)cc(NS(C)(=O)=O)c2)cc1-c1ccc(N2CC(C(F)(F)F)C2)cn1 [Example 496] | 71.9 | 19.5
CS(=O)(=O)Nc1cc(Cl)cc(NC(=O)c2cnn(-c3ncccc3OCc3cnco3)c2)c1 [Example 66] | 62.9% | 56.6
Cc1sc(C(=O)Nc2cc(Cl)cc(NS(C)(=O)=O)c2)cc1-c1ncc(N2CC(C(F)(F)F)C2)cn1 [Example 489] | 68.7 | 29.9
CS(=O)(=O)Nc1cc(Cl)cc(NC(=O)c2ccc3nccn3c2)c1 [Example 134] | 40% | 808
CS(=O)(=O)Nc1cc(Cl)cc(NC(=O)c2cc(-c3ncc(N4CC(F)(F)C4)cn3)cs2)c1 [Example 486] | 61.7 | 17.9
COC1CN(c2ccc(-c3cc(C(=O)Nc4cc(Cl)cc(NS(C)(=O)=O)c4)cn3C)nc2)C1 [Example 465] | 85.3 | 6.8
CS(=O)(=O)Nc1cc(Cl)cc(NC(=O)c2cnn(-c3ncc(N4CCOCC4)cc3OCc3cccnc3)c2)c1 [Example 194] | 64.3% | 6.8
Cn1cc(C(=O)Nc2cc(Cl)cc(NS(C)(=O)=O)c2)cc1-c1ccc(C#N)cn1 [Example 570] | 69.8 | 21.4
Cn1cc(C(=O)Nc2cc(Cl)cc(NS(C)(=O)=O)c2)cc1-c1ncc(F)cc1OCc1nnnn1C [Example 625] | 87.8 | 12.6
CS(=O)(=O)Nc1cc(Cl)cc(NC(=O)c2cc(Cl)n(-c3ncc(F)cn3)c2)c1 [Example 709] | 60.9 | 100
CS(=O)(=O)Nc1cc(Cl)cc(NC(=O)c2cnn(-c3ncccc3OCc3ncc[nH]3)c2)c1 [Example 252] | 72.1% | 48.9
CCOc1cnc(-n2cc(C(=O)Nc3cc(Cl)cc(NS(C)(=O)=O)c3)cc2C(F)(F)F)nc1 [Example 693] | 64.9 | 408
CS(=O)(=O)Nc1cc(Cl)cc(NC(=O)c2cnn(-c3ccccc3-c3cncc(F)c3)c2)c1 [Example 257] | 66.5% | 207
COc1cc(N2CC(F)(F)C2)cnc1-c1cc(C(=O)Nc2cc(Cl)cc(NS(=O)(=O)CCO)c2)sc1C [Example 528] | 61.5 | 26.2
CS(=O)(=O)Nc1cc(Cl)cc(NC(=O)c2cnn(-c3ccc(C4CCOCC4)cn3)c2)c1 [Example 190] | 68.8% | 19.1
Cn1cc(C(=O)Nc2cc(Cl)cc(NS(=O)(=O)C3CC3)c2)cc1-c1ccc(N2CC(F)(F)C2)cn1 [Example 530] | 83.7 | 427
Cc1cccnc1-c1cc(C(=O)Nc2cc(Br)cc(NS(C)(=O)=O)c2)cn1C [Example 84, N-(3-bromo-5-(methylsulfonamido)phenyl)-1-methyl-5-(3-methylpyridin-2-yl)-1H-pyrrole-3-carboxamide] | 66.7% | 10.1
CS(=O)(=O)Nc1cc(Cl)cc(NC(=O)c2cnn(-c3ncccc3OCc3ccn[nH]3)c2)c1 [Example 253] | 70% | 110
Cc1cccc(O)c1-c1csc(C(=O)Nc2cc(Br)cc(NS(C)(=O)=O)c2)c1 [Example 19] | 53.5% | 115

SMILES | DHX9 Biochemical Max Inhibition | IC50 [nM]
Cc1sc(C(=O)Nc2cc(Br)cc(NS(C)(=N)=O)c2)cc1-c1ccccn1 (centres unmarked) [Example 123] | 72.8% | 14.8
Cc1cc(C(=O)Nc2cc(Cl)cc(NS(C)(=O)=O)c2)cn1-c1ncc(N2CC(F)(F)C2)cc1OCC(F)(F)F [Example 708] | 73 | 69.1
CS(=O)(=O)Nc1cc(Cl)cc(NC(=O)c2cc3cc(C(F)(F)F)ccc3s2)c1 [Example 326] | 64.5% | 8110
Cc1cc(C#N)cnc1-c1cc(C(=O)Nc2cc(Cl)cc(NS(C)(=O)=O)c2)sc1C [Example 376] | 64.1% | –
Cc1cc(C(=O)Nc2cc(Cl)cc(NS(C)(=O)=O)c2)cn1-c1ccc(Cl)cn1 [Example 389] | 82.3% | 19.5
Cn1cc(C(=O)Nc2cc(Cl)cc(NS(C)(=O)=O)c2)cc1-c1ccc(N2CC(C)(F)C2)cn1 [Example 688] | 67.9 | 16.1
Cc1sc(C(=O)Nc2cc(Cl)cc(NS(C)(=O)=O)c2)cc1N1CCCC1=O [Example 434] | 67.1 | 51.1
CS(=O)(=O)Nc1cc(F)cc(NC(=O)c2cc(Br)[nH]n2)c1 [Example 4] | 64.1% | 4820
Cn1cc(C(=O)Nc2cc(Cl)cc(NS(C)(=O)=O)c2)cc1-c1ccc(N2CC(F)C2)cn1 [Example 539] | 76 | 18.1
Cc1sc(C(=O)Nc2cc(Cl)cc(NS(C)(=O)=O)c2)cc1-c1ncc(OCC(F)(F)F)cn1 [Example 706] | 96.1 | 19.6
Cc1cc(C(=O)Nc2cc(Cl)cc(NS(C)(=O)=O)c2)cn1-c1ccc(OC(C)(C)C)cn1 [Example 663] | 66.3 | 33
CN1CC(Oc2cnc(-c3cc(C(=O)Nc4cc(Cl)cc(NS(C)(=O)=O)c4)cn3CC(F)(F)F)c(F)c2)C1 [Example 638] | 70.5 | 13.9
CS(=O)(=O)Nc1cc(Cl)cc(NC(=O)c2cc(C3CCNCC3)cs2)c1 [Example 243] | 73.2% | 92.3
Cc1cc(C(=O)Nc2cc(Cl)cc(NS(C)(=O)=O)c2)cn1-c1ncccn1 [Example 59] | 77.5% | 12.7
COC(=O)N1CCN(c2cnc(-c3cc(C(=O)Nc4cc(Cl)cc(NS(C)(=O)=O)c4)cn3C)c(F)c2)CC1 [Example 464] | 74.8 | 5.7
Cc1cccnc1-n1cc(C(=O)Nc2cc(Br)cc(NS(C)(=O)=O)c2)cn1 [Example 49] | 58.6% | 49.7
Cc1cc(C(=O)Nc2cc(Cl)cc(NS(=O)(=O)C3CC3)c2)cn1-c1ccc(N2CCOCC2)cn1 [Example 247] | 70% | 131
Cn1cc(C(=O)Nc2cc(Cl)cc(NS(C)(=O)=O)c2)cc1-c1ccc(F)cn1 [Example 575] | 76.2 | 17.7
CC(C)Oc1cc(N2CC(F)(F)C2)cnc1-c1cc(C(=O)Nc2cc(Cl)cc(NS(C)(=O)=O)c2)cn1C [Example 513] | 56.4 | 77.7

SMILES | DHX9 Biochemical Max Inhibition | IC50 [nM]
CC(=O)N1CCC(n2cc(C(=O)Nc3cc(Cl)cc(NS(C)(=O)=O)c3)cn2)CC1 [Example 317] | 63.8% | 272
Cc1sc(C(=O)Nc2cc(Cl)cc(NS(C)(=O)=O)c2)cc1-c1ncc(F)cc1-c1ccc(=O)n(C)c1 [Example 606] | 71.8 | 26
CS(=O)(=O)Nc1cc(Cl)cc(NC(=O)c2cnn([C@H]3CC[C@H]3O)c2)c1 (single isomer, unassigned) [Example 306b] | 74.2% | 253
CC(c1ccccc1)n1cc(C(=O)Nc2cc(Cl)cc(NS(C)(=O)=O)c2)cn1 (centres unmarked) [Example 142, N-(3-chloro-5-(methylsulfonamido)phenyl)-1-(1-phenylethyl)-1H-pyrazole-4-carboxamide] | 62% | 514
CCc1cncc(COc2cccnc2-c2cc(C(=O)Nc3cc(Cl)cc(NS(C)(=O)=O)c3)cn2C)c1 [Example 730] | 72.6 | 11.7
CS(=O)(=O)Nc1cc(Cl)cc(NC(=O)c2cc(C(=O)N3CCN(CC(F)(F)F)CC3)n(-c3ccccn3)c2)c1 [Example 649] | 67.6 | 50.3
Cc1cccnc1-c1cc(C(=O)Nc2cc(Cl)cc(NS(C)(=O)=O)c2)cn1C [Example 81] | 66.7% | –
Cc1cc(C(=O)Nc2cc(Cl)cc(NS(C)(=O)=O)c2)cn1C1CCCC1 [Example 282] | 72.4% | 96.4
COc1cnc(-c2cc(C(=O)Nc3cc(Cl)cc(NS(C)(=O)=O)c3)sc2C)nc1 [Example 341] | 83.05% | 6.2
CCOc1cnn(-c2cc(C(=O)Nc3cc(Cl)cc(NS(C)(=O)=O)c3)sc2C)c1 [Example 438] | 66.9 | 5.8
COCc1cc(C(=O)Nc2cc(Cl)cc(NS(C)(=O)=O)c2)cn1-c1ncccc1F [Example 682] | 85.4 | 83.5
CN1CCN(C(=O)c2cc(C(=O)Nc3cc(Cl)cc(NS(C)(=O)=O)c3)cn2-c2ccccn2)CC1 [Example 665] | 70.1 | 30.9
CCS(=O)(=O)Nc1cc(Cl)cc(NC(=O)c2cc(-c3ncc(F)cc3OC)c(C)s2)c1 [Example 354] | 75.5% | 13.4
CS(=O)(=O)Nc1cc(Cl)cc(NC(=O)c2cc3c(=O)[nH]ccn3c2)c1 [Example 301] | 69.5% | 37.7
Cc1cc(C(=O)Nc2cc(Cl)cc(NS(C)(=O)=O)c2)cn1-c1ccccc1 [Example 129, N-(3-chloro-5-(methylsulfonamido)phenyl)-5-methyl-1-phenyl-1H-pyrrole-3-carboxamide] | 66.4% | –
COc1cnc(-c2cc(C(=O)Nc3cc(Cl)cc(NS(C)(=O)=O)c3)sc2C)c(C)c1 [Example 361] | 88.8% | –
CS(=O)(=O)Nc1cc(Cl)cc(NC(=O)c2cc(-c3ncc(F)cn3)n(C3CNC3)c2)c1 [Example 652] | 68.1 | 343
CS(=O)(=O)Nc1cc(Cl)cc(NC(=O)c2cnn(C3CC4CCC(C3)O4)c2)c1 (centres unmarked) [Example 250] | 64.6% | 185
Cc1cc(N2CC(F)(F)C2)cnc1-c1cc(C(=O)Nc2cc(Cl)cc(NS(C)(=O)=O)c2)sc1C [Example 537] | 63 | 20.8
